The record followed here is patent US20240251792A1, “WEED CONTROL METHOD” (SYNGENTA CROP PROTECTION AG, priority 2021, published 2024).

Holding throughout (assay type): in vivo
One assay has as its system weeds and/or crops. The assay can be described thus: Post-emergence biological efficacy (Table 4). The note with it: 1000 g/ha, evaluated after 13 days; for pest or weed control at 1000 g/ha: 312 h. In short, it runs like this: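 Weeds and crops were grown 14 days in a glasshouse, then sprayed post-emergence with compound formulated in acetone/F50 and diluted in 0.2% Genapol X080 to the final dose. Damage was scored after 13 days on a 0–100 scale, where 100 is total damage.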

A further assay concerns SETFA. In words: Pre-emergence biological efficacy (Table 3). Conditions: Setaria faberi, 312 h, 1000 g/ha, after 13 days, read-out: evaluation (100=total damage to plant; 0=no damage to plant). In short, it runs like this:
(§1)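 Pre-emergence spray one day after sowing; the compound, made up as a 50 g/l AMA-based formulation, was diluted with 0.2% Genapol X080. Visual damage rating 13 days later on a 0-100 scale, with glasshouse conditions of 24/18° C day/night and 15 h light.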

In assay [1] the test system is AMARE. In words: Pre-emergence biological efficacy (Table 3). The note with it: Amaranthus retroflexus, 312 h, 1000 g/ha, after 13 days, read-out: evaluation (100=total damage to plant; 0=no damage to plant). In short, it runs like this: as §1
The test system of assay [2] is LOLPE. In words: Pre-emergence biological efficacy (Table 3). Conditions: 1000 g/ha, after 13 days. An outline of the steps:
as §1

For another assay, the system named is SOLNI. The assay can be described thus: Pre-emergence biological efficacy (Table 3). The note with it: 1000 g/ha, after 13 days. In short, it runs like this:
as §1

For the next assay, the system named is ECHCG. In words: Pre-emergence biological efficacy (Table 3). Conditions: Echinochloa crus-galli, 312 h, 1000 g/ha, after 13 days, read-out: evaluation (100=total damage to plant; 0=no damage to plant). In short, it runs like this: as §1
The test system of a further assay is IPOHE. The assay can be described thus: Pre-emergence biological efficacy (Table 3). Conditions: Ipomoea hederacea, 312 h, 1000 g/ha, after 13 days, read-out: evaluation (100=total damage to plant; 0=no damage to plant). An outline of the steps:
as §1

Assay [3] relates to AMARE. In words: Biological efficacy, post-emergence glasshouse test (Table 2). Conditions: 1000 g/ha, after 12 days. In short, it runs like this: (§2)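 Seeds sown in unsterilised compost were grown one day (pre-emergence) or seven days (post-emergence) in a glasshouse at 24/16 °C day/night, 14 h light, 65% humidity, then sprayed at 1000 g/ha in acetone/water/Tween 20 (49.75:49.75:0.5). Damage was scored after 12 days, 0 (none) to 100 (total).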

Assay [4] has as its system STEME. The assay is described as above. Conditions: 1000 g/ha, after 12 days. In short, it runs like this:
as §2

The subject of assay [5] is DIGSA. The description is as above. Conditions: 1000 g/ha, after 12 days. In short, it runs like this:
as §2

The test system of assay [6] is LOLPE. The description is as above. Conditions: 1000 g/ha, after 12 days. An outline of the steps: as §2
The test system of assay [7] is AMARE. In words: Biological efficacy, pre-emergence glasshouse test (Table 2). The note with it: 1000 g/ha, after 12 days. An outline of the steps:
as §2

Assay [8] concerns STEME. The description is as above. The note with it: 1000 g/ha, after 12 days. In short, it runs like this:
as §2

Assay [9] deals with DIGSA. The assay is described as above. Conditions: 1000 g/ha, after 12 days. An outline of the steps: as §2
Assay [10] concerns LOLPE. The assay is described as above. Conditions: 1000 g/ha, after 12 days. An outline of the steps: as §2
A further assay concerns ZEAMX. In words: Pre-emergence biological efficacy (Table 3). The note with it: 312 h, 1000 g/ha, after 13 days, read-out: evaluation (100=total damage to plant; 0=no damage to plant). In short, it runs like this:
as §1

The next assay deals with AMAPA. In words: Pre-emergence biological efficacy (Table 3). The note with it: 312 h, 1000 g/ha, after 13 days, read-out: evaluation (100=total damage to plant; 0=no damage to plant). An outline of the steps:
as §1

The mark [11] stands for this setting: Amaranthus retroflexus, AMARE, read-out: damage to plant AMARE (100=total damage; 0=no damage).
[12] abbreviates: Echinochloa crus-galli, ECHCG, read-out: damage to plant ECHCG (100=total damage; 0=no damage).
Where [13] appears, read: Ipomoea hederacea, IPOHE, read-out: damage to plant IPOHE (100=total damage; 0=no damage).
Setting [14] is: Setaria faberi, SETFA, read-out: damage to plant SETFA (100=total damage; 0=no damage).
[15] abbreviates: AMAPA, read-out: damage to plant AMAPA (100=total damage; 0=no damage).
The mark [16] stands for this setting: ZEAMX, read-out: damage to plant ZEAMX (100=total damage; 0=no damage).

Read-outs that look alike come from different tables or passages of the source.

Take `COC(=O)C(F)(F)c1c(Cl)cccc1OC` [Compound 2-65, Methyl 2-(2-chloro-6-methoxy-phenyl)-2,2-difluoro-acetate]: the pest or weed control at 1000 g/ha with weeds and/or crops (setting [11]) was 70%; in the assay with weeds and/or crops (setting [12]), 40%; with weeds and/or crops (setting [13]), 70%; with weeds and/or crops (setting [14]) it was 10%; in the assay with SETFA it was 0%; in the assay on AMARE [1], 50%. For the same compound, the figures for the pest or weed control at 1000 g/ha in the assay on ECHCG and in the assay on IPOHE were 0% and 70%, respectively. Also, in the assay on weeds and/or crops, the “damage to plant LOLPE (100=total damage; 0=no damage)” value came to 0. Also, the “damage to plant SOLNI (100=total damage; 0=no damage)” value in the assay on weeds and/or crops is reported as 30. For the same compound, the “evaluation (100=total damage to plant; 0=no damage to plant)” value came out at 0 in the assay on LOLPE [2] and 10 in the assay with SOLNI.
In the case of `O=C(O)C(F)(F)c1cccc2ccccc12` [Compound 1-397, 2,2-Difluoro-2-(1-naphthyl)acetic acid], the “score (100=total damage to plant, 0=no damage to plant)” value with AMARE [3] is 70; in the assay on STEME [4], 80; in the assay on DIGSA [5], 0; in the assay with LOLPE [6], 0; with AMARE [7], 90; with STEME [8] it was 90. Moreover, the “score (100=total damage to plant, 0=no damage to plant)” value in the assay on DIGSA [9] is on record as 30; in the assay on LOLPE [10] it was 70. Besides, the pest or weed control at 1000 g/ha in the assay on weeds and/or crops (setting [11]) was 70%; in the assay with weeds and/or crops (setting [12]), 20%; with weeds and/or crops (setting [13]), 70%; in the assay on weeds and/or crops (setting [14]), 10%; with SETFA, 20%; in the assay with AMARE [1] it was 80%. In addition, the pest or weed control at 1000 g/ha was 60% in the assay with ECHCG and 80% in the assay on IPOHE. Moreover, the “damage to plant LOLPE (100=total damage; 0=no damage)” value with weeds and/or crops is on record as 10. Also, the “damage to plant SOLNI (100=total damage; 0=no damage)” value with weeds and/or crops is on record as 80. Moreover, the “evaluation (100=total damage to plant; 0=no damage to plant)” value with LOLPE [2] is reported as 40; in the assay on SOLNI, 100.
Turning to `COc1c(Cl)ccc(Cl)c1C(F)(F)C(=O)O` [Compound 1-326, 2-(3,6-dichloro-2-methoxy-phenyl)-2,2-difluoro-acetic acid], the pest or weed control at 1000 g/ha with weeds and/or crops (setting [11]) was 80%; in the assay on weeds and/or crops (setting [12]), 0%; in the assay with weeds and/or crops (setting [13]) it was 80%; in the assay with weeds and/or crops (setting [14]), 0%; with SETFA, 10%; in the assay on AMARE [1] it was 50%. Also, the pest or weed control at 1000 g/ha in the assay with ECHCG turned out to be 30%; in the assay with IPOHE, 20%. In the assay on weeds and/or crops, the “damage to plant LOLPE (100=total damage; 0=no damage)” value was determined as 0. For the same compound, the “evaluation (100=total damage to plant; 0=no damage to plant)” value in the assay with LOLPE [2] is recorded as 10.
For `COc1cccc(Cl)c1C(F)(F)C(=O)O` [Compound 1-65, 2-(2-Chloro-6-methoxy-phenyl)-2,2-difluoro-acetic acid], the pest or weed control at 1000 g/ha in the assay on weeds and/or crops (setting [11]) was determined as 70%; in the assay with weeds and/or crops (setting [12]), 0%; with weeds and/or crops (setting [13]) it was 70%; in the assay with weeds and/or crops (setting [14]), 0%; with SETFA, 0%; in the assay with AMARE [1], 60%. For the same compound, the figures for the pest or weed control at 1000 g/ha with ECHCG and in the assay with IPOHE were 0% and 40%, respectively. In addition, in the assay on weeds and/or crops, the “damage to plant LOLPE (100=total damage; 0=no damage)” value came to 0. Besides, the “evaluation (100=total damage to plant; 0=no damage to plant)” value in the assay with LOLPE [2] turned out to be 0.
Turning to `COC(=O)C(F)(F)c1c(Cl)ccc(Cl)c1OC` [Compound 2-326, methyl 2-(3,6-dichloro-2-methoxy-phenyl)-2,2-difluoro-acetate], the pest or weed control at 1000 g/ha in the assay with weeds and/or crops (setting [11]) turned out to be 70%; with weeds and/or crops (setting [12]) it was 0%; in the assay with weeds and/or crops (setting [13]), 40%; with weeds and/or crops (setting [14]), 0%; in the assay with SETFA it was 10%; in the assay on AMARE [1], 40%. In addition, the pest or weed control at 1000 g/ha was found to be 20% with ECHCG and 40% in the assay with IPOHE. In the assay with weeds and/or crops, the “damage to plant LOLPE (100=total damage; 0=no damage)” value was determined as 0. Moreover, the “evaluation (100=total damage to plant; 0=no damage to plant)” value in the assay on LOLPE [2] was found to be 10.
Consider `O=C(O)C(F)(F)c1c(Cl)ccc2cc(Cl)cnc12` [Compound 1-418, 2-(3,7-Dichloro-8-quinolyl)-2,2-difluoro-acetic acid], for which the pest or weed control at 1000 g/ha in the assay with weeds and/or crops (setting [11]) worked out at 50%; in the assay on weeds and/or crops (setting [12]) it was 0%; in the assay with weeds and/or crops (setting [13]), 40%; in the assay with weeds and/or crops (setting [14]), 0%; in the assay with SETFA it was 50%; in the assay with AMARE [1], 30%. The figures for the pest or weed control at 1000 g/ha with ECHCG and in the assay on IPOHE were 20% and 50%, respectively. In the assay on weeds and/or crops, the “damage to plant LOLPE (100=total damage; 0=no damage)” value was 0. The “damage to plant SOLNI (100=total damage; 0=no damage)” value in the assay on weeds and/or crops worked out at 90. In addition, the “evaluation (100=total damage to plant; 0=no damage to plant)” value with LOLPE [2] is 0; with SOLNI it was 10.
Turning to `COc1ccc(C(F)(F)C(=O)O)c([N+](=O)[O-])c1F` [Compound 1-461, 2,2-Difluoro-2-(3-fluoro-4-methoxy-2-nitro-phenyl)acetic acid], the pest or weed control at 1000 g/ha turned out to be 80% with weeds and/or crops (setting [15]); 0% in the assay with weeds and/or crops (setting [16]); 80% with weeds and/or crops (setting [11]); 10% in the assay on weeds and/or crops (setting [12]); 20% with weeds and/or crops (setting [13]); 30% with weeds and/or crops (setting [14]). For the same compound, the pest or weed control at 1000 g/ha in the assay on SETFA came out at 30%; with AMARE [1], 40%; in the assay with AMAPA it was 30%; in the assay with ECHCG, 0%; in the assay with IPOHE, 20%. Besides, in the assay with ZEAMX, the plant injury at 1000 g/ha came out at 10%.
Turning to `O=C(O)C(F)(F)c1cccc(Cl)c1C1CC1` [Compound 1-428, 2-(3-Chloro-2-cyclopropyl-phenyl)-2,2-difluoro-acetic acid], the pest or weed control at 1000 g/ha with weeds and/or crops (setting [15]) came to 90%; in the assay on weeds and/or crops (setting [16]), 10%; in the assay on weeds and/or crops (setting [11]) it was 90%; in the assay on weeds and/or crops (setting [12]) it was 10%; with weeds and/or crops (setting [13]), 90%; with weeds and/or crops (setting [14]), 0%. Besides, the pest or weed control at 1000 g/ha in the assay on SETFA is 0%; with AMARE [1], 80%; in the assay on AMAPA, 90%; with ECHCG, 0%; in the assay on IPOHE it was 80%. Besides, the plant injury at 1000 g/ha in the assay with ZEAMX stood at 0%.
With `COC(=O)C(F)(F)c1c(Cl)ccc2cc(Cl)cnc12` [Compound 2-418, Methyl 2-(3,7-dichloro-8-quinolyl)-2,2-difluoro-acetate], the pest or weed control at 1000 g/ha in the assay with weeds and/or crops (setting [11]) amounted to 70%; in the assay on weeds and/or crops (setting [12]) it was 0%; in the assay on weeds and/or crops (setting [13]), 80%; in the assay with weeds and/or crops (setting [14]), 0%; with SETFA, 20%; with AMARE [1], 60%. Besides, the results for the pest or weed control at 1000 g/ha in the assay on ECHCG and in the assay with IPOHE were 10% and 50%, respectively. The “damage to plant LOLPE (100=total damage; 0=no damage)” value in the assay with weeds and/or crops is recorded as 0. In the assay with LOLPE [2], the “evaluation (100=total damage to plant; 0=no damage to plant)” value was found to be 0.
